# Reference: patent US20190175528A1, “INHIBITION OF BIOFILM ORGANISMS” (NovaBiotics Limited, priority 2009, published 2019)
# How the values were obtained:
# [1] = system: P. aeruginosa ATCC27853 biofilm cells; type: cell-based, Pseudomonas aeruginosa; conditions: for MBEC alone, P. aeruginosa ATCC27853: agent alone, FIG. 21a
# Protocol: (§1) A total volume of 100 μl bacterial inoculum in Mueller-Hinton was added to each well of 96-well plates (challenge plates) and the plates were incubated at 37° C. for 24 h on a gyrorotary shaking platform (Grant-bio PS-3D, Shepreth, England) at 24 rpm to allow for biofilm formation.
# (§2) The challenge plates were then rinsed once with sterile PBS (lx) and two-fold serial dilutions of antimicrobial agents in Mueller-Hinton were added to the challenge plates. The challenge plates were incubated at 37° C. for 24 h on a gyrorotary shaking platform (Grant-bio PS-3D, Shepreth, England) at 24 rpm.
# (§3) The supernatants from each of the challenge plates were transferred into fresh plates and the optical density was measured at 625 nm on a microtitre plate reader (BioTek Powerwave XS, Winooski, USA). The MBEC was obtained by the lowest concentration of antimicrobial showing no bacterial growth.
# [2] = system: S. aureus DSM 11729 persister cells; test: Relative viability of persister cells (SYTO9/PI live/dead fluorescence, microscopy); type: cell-based, Staphylococcus aureus; conditions: agent alone, at low concentrations; FIG. 18
# Protocol: (§4) Following transfer of the supernatant from the challenge plates, the biofilms were rinsed once with sterile PBS (lx) and 100 μl of BacLight live/dead fluorescent staining solution (Invitrogen, Paisley, UK) containing 4 μM SYTO9 and 20 μM propidium iodide (PI) in sterile PBS (lx) were added to the wells of the challenge plates. The plates were incubated at room temperature in the dark for 15 min and the fluorescence was read at 485(ex)/528(em) and 485(ex)/645(em) for SYTO9 and PI fluorescence, respectively on a fluorescence microtitre plate reader (BioTek Synergy HT, Winooski, USA) with the sensitivity set at 50 and bottom optics position was selected. Direct observation of the biofilms with an Axiovert 40 fluorescence microscope (Zeiss, Gottingen, Germany) allowed identifying the presence of live and dead bacteria and pictures of the biofilms were taken at 100 to 400-fold magnification.
# (§5) The relative viability of persister cells was determined by the live/dead fluorescence measurements ratio and microscopic observations were used to confirm the presence or absence of live cells.
# The activity of NP108 and cysteamine against the persister cells was assessed using a fluorescence staining method to determine the relative viability of the cells. […]
# [3] = system: P. aeruginosa ATCC BAA-47 (PAO1) persister cells; test: as above; type: cell-based, Pseudomonas aeruginosa; conditions: agent alone
# Protocol: as §4, §5
# The activity of NP108 and cysteamine against the persister cells was assessed using a fluorescence staining method to determine the relative viability of the cells. The nucleic acid-binding fluorescent molecules used were SYTO9 and PI, which penetrate all bacterial cells (green fluorescence) and membrane-disrupted cells (red fluorescence), respectively.
# [4] = system: P. aeruginosa strains (7) biofilm cells; type: cell-based, Pseudomonas aeruginosa; conditions: agent alone
# Protocol: (§6) The FIC was also calculated to assess the interaction of two antimicrobial agents in combination against bacterial biofilms. The same formulae applied, using MBEC instead of MIC.
# as §1, §2, §3
# (§7) Summary of the activity of the tested antimicrobial agents against the Gram-negative P. aeruginosa strains and the Gram-positive Staphylococcus spp. The number into brackets indicates the maximum number of strains tested. MIC: minimum inhibition concentration; MBEC: minimum biofilm eradication concentration; FIC: fractional inhibitory concentration.
# [5] = system: P. aeruginosa strains (7); test: microbe, parasite or virus in culture; type: cell-based, Pseudomonas aeruginosa; conditions: agent alone, range over strains
# Protocol: (§8) The bacterial inoculum was established by the dilution method from actively-growing cultures in Mueller-Hinton broth, standardized with 0.5 McFarland turbidity standard as described in the CLSI method M26-A.
# (§9) To determine the prevention of biofilm formation, both the bacterial inoculum and the antimicrobial agents were added simultaneously to the plates. The plates were incubated at 37° C. for 24 h and the optical density was read at 625 nm on a microtitre plate reader (BioTek Powerwave XS, Winooski, USA). The MIC was obtained as the lowest concentration of antimicrobial showing total inhibition of bacterial growth.
# (§10) The FIC corresponds to an interaction coefficient indicating whether the combination of antimicrobial agents is synergistic, additive, antagonist or neutral. The FIC is determined by comparing the activity of an agent in combination (MIC of agent A+agent B) with the activity of the agent alone (MIC of agent A or agent B) as follow (Singh et al., 2000):
# (§11) FIC=MICA[combination]/MICA[alone]+MICB[combination]/MICB[alone]
# (§12) Additive combinations of two antimicrobial agents are indicated by a FIC index of 1, whereas a FIC index <1 indicates synergistic combinations. Neutral combinations would give a FIC between 1 and 4, a FIC index higher than 4 indicates antagonist effects between the two antimicrobial agents.
# as §7
# Staphylococcus spp (4) = test: microbe, parasite or virus in culture; type: cell-based; conditions: agent alone, range over strains
# Protocol: as §8, §9, §10, §11, §12, §7
# [6] = system: S. aureus DSM 11729 (MRSA); test: microbe, parasite or virus in culture; type: cell-based, Staphylococcus aureus; conditions: Staphylococcus aureus; agent alone; prevention of biofilm formation, 24 h
# Protocol: as §8
# as §9, with “growth. […]” for “growth.”
# (§13) FIC=MICA[combination]/MICA[alone]+MICB[combination]/MICB[alone] […]
# (§14) In order to assess for the prevention of biofilm formation by both Gram-positive and Gram-negative bacteria, the bacterial inoculum and antimicrobial agents were added simultaneously in the plates. The range of concentrations of antimicrobial agents was 0-500 μg/ml NP108 and 0-320 μg/ml cysteamine against the Gram-negative bacteria P. aeruginosa ATCC BAA-47 and 0-1000 μg/ml NP108 and 0-320 μg/ml cysteamine against the Gram-positive MRSA.
# [7] = system: S. aureus DSM 11729 (MRSA); conditions: agent alone; data not shown
# [8] = system: P. aeruginosa strains (7) persister cells; test: Persister cells in biofilms (live/dead staining), summary over strains; type: cell-based, Pseudomonas aeruginosa; conditions: agent alone
# Protocol: as §4, §5, §7
# [9] = system: Staphylococcus spp (4) persister cells; test: as above; type: cell-based; conditions: agent alone
# Protocol: as §4, §5, §7
# [10] = system: Staphylococcus spp (4) biofilm cells; type: cell-based; conditions: agent alone; biofilm cells
# Protocol: as §6, §1, §2, §3, §7
# [11] = system: S. aureus DSM 11729 biofilm cells; type: cell-based, Staphylococcus aureus
# Protocol: as §6, §1, §2, §3
# (§15) The assessment of the activity of NP108 and cysteamine against bacterial biofilms was carried out with 24 h-old biofilms and the activity of both compounds in combination was also determined. The activity of the antimicrobial agents against bacterial biofilms was determined by their activity against the biofilm cells and against the persister cells.
# [12] = system: P. aeruginosa ATCC BAA-47; conditions: agent alone; data not shown
# [13] = system: P. aeruginosa ATCC BAA-47; test: microbe, parasite or virus in culture; type: cell-based, Pseudomonas aeruginosa; conditions: Pseudomonas aeruginosa, ATCCBAA47; agent alone; prevention of biofilm formation, 24 h
# Protocol: as §8
# as §9, with “growth. […]” for “growth.”
# as §13, §14
# [14] = system: Gram-positive and Gram-negative persister cells; test: Relative viability of persister cells (SYTO9/PI live/dead fluorescence); type: cell-based; conditions: lowest concentration tested; FIG. 10
# Protocol: as §4, §5
# [15] = system: P. aeruginosa ATCC BAA-47 (PAO1) biofilm cells; test: MBEC against 24 h-old biofilm; type: cell-based, Pseudomonas aeruginosa
# Protocol: as §6, §1, §2, §3, §15
# [16] = system: S. epidermidis 12228 biofilm cells; test: MBEC against 24 h-old biofilm; type: cell-based, Staphylococcus epidermidis; conditions: agent alone
# Protocol: as §1, §2, §3, §15
# [17] = system: methicillin-resistant S. aureus (MRSA) DSM 11729 planktonic cells; test: Time course activity over a 48-h period against planktonic cells; type: cell-based, Staphylococcus aureus; conditions: 0.25 mg/ml
# Text: The range of concentrations tested as shown in the legends is in mg/ml.
# [18] = system: P. aeruginosa ATCC27853 persister cells; test: Relative viability of persister cells (SYTO9/PI live/dead fluorescence); type: cell-based, Pseudomonas aeruginosa; conditions: 1024 μg/ml NP341+3128 μg/ml N-acetylcysteine; FIG. 20b
# Protocol: as §4, §5
smiles,measurement,setting,value
"NCCS [Cysteamine, cysteamine, reference compound]","MBEC alone, P. aeruginosa ATCC27853",[1],more than 100 mg/ml
same,activity against persister cells of S. aureus DSM 11729,[2],lack of activity
same,activity against persister cells of P. aeruginosa ATCC BAA-47,"[3]; relative viability remained significant, FIG. 12",lack of activity
same,"MBEC, P. aeruginosa strains (7)",[4],">5,000 μg/ml"
same,MIC,[5]; Pseudomonas aeruginosa,300 to 2500 µg/mL
same,MIC,Staphylococcus spp (4); Staphylococcus,300 to 625 µg/mL
same,MIC,[6],> 320 µg/mL
same,"bactericidal concentration, S. aureus DSM 11729",[7],more than 320 μg/ml
same,"Persisters, active concentration, P. aeruginosa strains (7)",[8],"500-6,250 μg/ml"
same,"Persisters, active concentration, Staphylococcus spp (4)",[9]; persister cells,"6,250-12,500 μg/ml"
same,"MBEC, Staphylococcus spp (4)",[10],">25,000 μg/ml"
same,"MBEC, S. aureus (MRSA) DSM 11729 biofilm cells",[11]; agent alone,250 µg/mL
same,"MBEC cysteamine[combination], S. aureus DSM 11729 biofilm cells",[11]; with 31.25 μg/ml NP108,62.5 µg/mL
same,"bactericidal concentration, P. aeruginosa ATCC BAA-47",[12],> 320 µg/mL
same,MIC,[13],320 µg/mL
same,concentration that suppressed the viability of Gram-positive and Gram-negative persister cells,[14],≤ 6.25 mg/mL
same,"MBEC [alone], P. aeruginosa ATCC BAA-47 biofilm cells",[15]; agent alone,> 100.00 µg/mL
same,"MBEC cysteamine[combination], P. aeruginosa ATCC BAA-47 biofilm cells",[15]; with 250 μg/ml NP108,62.5 µg/mL
"N=C(N)NCCC[C@@H](N)C(=O)N[C@H](CCCNC(=N)N)C(=O)N[C@H](CCCNC(=N)N)C(=O)N[C@H](CCCNC(=N)N)C(=O)N[C@H](CCCNC(=N)N)C(=O)N[C@H](CCCNC(=N)N)C(=O)N[C@H](CCCNC(=N)N)C(=O)N[C@H](CCCNC(=N)N)C(=O)N[C@H](CCCNC(=N)N)C(=O)N[C@H](CCCNC(=N)N)C(=O)N[C@H](CCCNC(=N)N)C(=O)N[C@H](CCCNC(=N)N)C(=O)N[C@H](CCCNC(=N)N)C(N)=O [NP341, dRdRdRdRdRdRdRdRdRdRdRdRdR-CONH]","MBEC, S. epidermidis 12228 biofilm cells",[16],625 µg/mL
same,"MBEC alone, P. aeruginosa ATCC27853",[1],more than 2 mg/ml
same,"NP341 needed to reach the MBEC in combination, P. aeruginosa ATCC27853","[1]; in combination with 3-6 mg/ml of N-acetylcysteine, FIG. 20a",205 µg/mL
same,concentration that inhibits the viability of P. aeruginosa BAA-47 (PAO1) persister cells,"[3]; FIG. 6, FIG. 8",625 µg/mL
same,"MBEC, P. aeruginosa strains (7)",[4],">5,000 μg/ml"
same,duration of complete inhibition,[17],48 h
same,"MIC, P. aeruginosa strains (7)",[5],31.25 µg/mL
same,"MIC, Staphylococcus spp (4)",Staphylococcus spp (4),250 µg/mL
same,"inhibition of persister cells, P. aeruginosa ATCC27853",[18],approximately 75%
same,"Persisters, active concentration, P. aeruginosa strains (7)",[8],625 µg/mL
same,decrease of viability of persister cells of the 3 Staphylococcus species,[9]; FIG. 8,25 to 50%
same,"MBEC, S. aureus (MRSA) DSM 11729 biofilm cells",[11]; agent alone,625 µg/mL
same,"reduction of viability of biofilm cells, MRSA 11729","[11]; agent alone, FIG. 7",2 to 3 fold
same,"reduction of viability of biofilm cells, P. aeruginosa BAA-47 (PAO1)","[15]; agent alone, FIG. 7",2 to 3 fold
